This is an account of results in ChEMBL document CHEMBL1208719, “Design and synthesis of 4-[3,5-dioxo-11-oxa-4,9-diazatricyclo[5.3.1.0(2,6)]undec-4-yl]-2-trifluoromethyl-benzonitriles as androgen receptor antagonists” (Bioorg Med Chem Lett, 2010).

The target of experiment [1] is T1, Androgen receptor (Homo sapiens, UniProt P10275).
T1 sequence (P10275 whole entry): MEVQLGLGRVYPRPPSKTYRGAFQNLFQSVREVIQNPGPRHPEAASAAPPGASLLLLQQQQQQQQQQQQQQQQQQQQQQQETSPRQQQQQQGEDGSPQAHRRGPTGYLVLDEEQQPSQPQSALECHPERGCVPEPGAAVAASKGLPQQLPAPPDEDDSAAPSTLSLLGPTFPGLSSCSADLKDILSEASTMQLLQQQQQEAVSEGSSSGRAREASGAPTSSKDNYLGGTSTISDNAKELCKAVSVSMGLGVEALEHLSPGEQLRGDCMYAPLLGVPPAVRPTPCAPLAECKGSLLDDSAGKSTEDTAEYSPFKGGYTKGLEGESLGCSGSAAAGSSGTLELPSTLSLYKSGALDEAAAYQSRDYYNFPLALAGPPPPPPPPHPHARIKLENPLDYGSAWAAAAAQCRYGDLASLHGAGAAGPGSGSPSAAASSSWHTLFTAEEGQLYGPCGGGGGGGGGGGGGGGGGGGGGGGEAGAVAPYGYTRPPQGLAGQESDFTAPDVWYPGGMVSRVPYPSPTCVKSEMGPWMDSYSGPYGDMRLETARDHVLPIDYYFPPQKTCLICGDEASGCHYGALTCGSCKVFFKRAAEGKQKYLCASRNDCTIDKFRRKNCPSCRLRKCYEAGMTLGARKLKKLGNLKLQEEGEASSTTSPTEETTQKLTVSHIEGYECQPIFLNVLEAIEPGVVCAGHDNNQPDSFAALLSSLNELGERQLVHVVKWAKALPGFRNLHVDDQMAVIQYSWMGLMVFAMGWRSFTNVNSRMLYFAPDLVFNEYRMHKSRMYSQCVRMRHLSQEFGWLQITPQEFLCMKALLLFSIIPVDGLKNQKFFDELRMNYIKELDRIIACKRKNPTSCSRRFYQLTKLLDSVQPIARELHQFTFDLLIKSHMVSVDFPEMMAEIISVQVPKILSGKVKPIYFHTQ
The experiment in a line: Displacement of [3H]DHT from AR in human MDA-MB-453 cells. (In general: Loss of bound radioactivity is the signal in a displacement assay; it reports binding, not function.)

The target in experiment [2] is T1, Androgen receptor.
Description: Antagonist activity at wild type human AR expressed in human LNCAP cells by transactivation assay
Another experiment relates to MDA-MB-435. The experiment in a line: Cytotoxicity against human MDA-MB-435 cells assessed as inhibition of DHT-induced cell growth at 5 uM. In kind it is functional.
The next experiment concerns LNCaP. The experiment can be described thus: Cytotoxicity against human LNCAP cells assessed as inhibition of DHT-induced cell growth at 5 uM. In kind it is functional.
In experiment [3] the target is T1, Androgen receptor. The source holds these as a separate data set.
Description: Antagonist activity at human wild type AR expressed in human MDA-MB-435 cells by transactivation assay

What is called Ki is the equilibrium dissociation constant of an inhibitor or competing ligand from its target. Higher therefore signals a looser hold on the target. A word on the IC50: it is the point on the concentration scale where inhibition reaches its midpoint. A low value points to higher potency. As usually defined, the inhibition is how much of the control response was suppressed. On Androgen receptor [1], `C[C@]12CN(C(=O)C3CC3)C[C@](C)(O1)[C@@H]1C(=O)N(c3ccc(C#N)c(C(F)(F)F)c3)C(=O)[C@@H]12` showed a Ki of 0.036 µM. At Androgen receptor [2], the IC50 is 0.404 µM. For the same compound, the figures for the inhibition at 5 µM in the experiment with MDA-MB-435 and with LNCaP were 99% and 95%, respectively.
Compound `CCC(=O)N1C[C@@]2(C)O[C@@](C)(C1)[C@@H]1C(=O)N(c3ccc(C#N)c(C(F)(F)F)c3)C(=O)[C@@H]12` showed a Ki at Androgen receptor [1] of 0.084 µM. The figures for the IC50 against Androgen receptor [2] and against Androgen receptor [3] were 0.549 µM and 0.129 µM, respectively. The inhibition at 5 µM with MDA-MB-435 came to 95%; in the experiment with LNCaP, 91%.
The like results for `CC(C)N1C(=O)[C@]2(C)O[C@](C)(C1=O)[C@H]1C(=O)N(c3ccc(C#N)c(C(F)(F)F)c3)C(=O)[C@H]12` were, in that order, 0.014 µM, 0.125 µM, 0.032 µM, 99% and 99%.
The like results for `C[C@]12CN(C(=O)Nc3ccc(F)cc3)C[C@](C)(O1)[C@@H]1C(=O)N(c3ccc(C#N)c(C(F)(F)F)c3)C(=O)[C@@H]12` were, in that order, 0.029 µM, 0.104 µM, 0.039 µM, 99% and 98%.
The like results for `CC(C)C(=O)N1C[C@@]2(C)O[C@@](C)(C1)[C@@H]1C(=O)N(c3ccc(C#N)c(C(F)(F)F)c3)C(=O)[C@@H]12` were, in that order, 0.039 µM, 1.61 µM, 0.215 µM, 98% and 72%.
In the case of `C[C@]12CN(c3cccc(S(N)(=O)=O)c3)C[C@](C)(O1)[C@@H]1C(=O)N(c3ccc(C#N)c(C(F)(F)F)c3)C(=O)[C@@H]12`, the inhibitory constant (Ki) on Androgen receptor [1] was 0.022 µM. The 50% inhibitory concentration (IC50) stood at 0.337 µM against Androgen receptor [2] and 0.037 µM against Androgen receptor [3]. Besides, the results for the inhibition at 5 µM in the experiment with MDA-MB-435 and in the experiment on LNCaP were 99% and 94%, respectively.
Taken in the same sequence, the figures for `C[C@]12CN(S(=O)(=O)c3ccccn3)C[C@](C)(O1)[C@@H]1C(=O)N(c3ccc(C#N)c(C(F)(F)F)c3)C(=O)[C@@H]12` were 0.093 µM, 1.24 µM, 0.17 µM, 98% and 80%.
Compound `CC(C)[N+]1([O-])C(=O)[C@]2(C)O[C@](C)(C1=O)[C@H]1C(=O)N(c3ccc(C#N)c(C(F)(F)F)c3)C(=O)[C@H]12` (some centres not stated) displayed an inhibition constant (Ki) at Androgen receptor [1] of 3.6 µM. The half-maximal inhibitory concentration (IC50) against Androgen receptor [2] turned out to be 5 µM; on Androgen receptor [3] it was 3.9 µM. In addition, the inhibition at 5 µM in the experiment on MDA-MB-435 was 58%.
On Androgen receptor [1], `C[C@]12CN(c3cccc(C(N)=O)c3)C[C@](C)(O1)[C@@H]1C(=O)N(c3ccc(C#N)c(C(F)(F)F)c3)C(=O)[C@@H]12` displayed a Ki of 0.009 µM. The compound further returned a concentration for half-maximal inhibition (IC50) at Androgen receptor [2] of 0.127 µM. Further, the inhibition at 5 µM is 98% in the experiment on MDA-MB-435 and 99% in the experiment with LNCaP.
Compound `CCCOC(=O)N1C[C@@]2(C)O[C@@](C)(C1)[C@@H]1C(=O)N(c3ccc(C#N)c(C(F)(F)F)c3)C(=O)[C@@H]12` registered an inhibition constant (Ki) at Androgen receptor [1] of 0.0066 µM. Also, the results for the IC50 against Androgen receptor [2] and on Androgen receptor [3] were 0.054 µM and 0.0093 µM, respectively. Besides, the inhibition at 5 µM in the experiment on MDA-MB-435 and in the experiment with LNCaP was 99% each time.
Consider `C[C@]12CN(c3ncccn3)C[C@](C)(O1)[C@@H]1C(=O)N(c3ccc(C#N)c(C(F)(F)F)c3)C(=O)[C@@H]12`, for which the affinity at Androgen receptor [1] corresponds to a Ki of 0.0061 µM. Moreover, the figures for the IC50 at Androgen receptor [2] and against Androgen receptor [3] were 0.377 µM and 0.031 µM, respectively. The inhibition at 5 µM in the experiment on MDA-MB-435 amounted to 99%; in the experiment on LNCaP it was 97%.
The compound `CC(C)NC(=O)N1C[C@@]2(C)O[C@@](C)(C1)[C@@H]1C(=O)N(c3ccc(C#N)c(C(F)(F)F)c3)C(=O)[C@@H]12` had a Ki at Androgen receptor [1] of 0.098 µM. Besides, the concentration for half-maximal inhibition (IC50) was 4.6 µM against Androgen receptor [2] and 0.876 µM against Androgen receptor [3]. For the same compound, the inhibition at 5 µM with MDA-MB-435 came out at 88%; with LNCaP it was 52%.
Take `C[C@]12CN(O)C[C@](C)(O1)[C@@H]1C(=O)N(c3ccc(C#N)c(C(F)(F)F)c3)C(=O)[C@@H]12`: on Androgen receptor [1], affinity was put at a Ki of 0.037 µM. Moreover, the IC50 against Androgen receptor [2] was found to be 1.28 µM; against Androgen receptor [3], 0.182 µM. Moreover, the values for the inhibition at 5 µM in the experiment on MDA-MB-435 and in the experiment on LNCaP were 97% and 79%, respectively.
Taken in the same sequence, the figures for `C[C@]12CN(S(C)(=O)=O)C[C@](C)(O1)[C@@H]1C(=O)N(c3ccc(C#N)c(C(F)(F)F)c3)C(=O)[C@@H]12` were 0.056 µM, 3.51 µM, 0.205 µM, 99% and 61%.
On Androgen receptor [1], `C[C@]12CN(c3cc(Cl)ncn3)C[C@](C)(O1)[C@@H]1C(=O)N(c3ccc(C#N)c(C(F)(F)F)c3)C(=O)[C@@H]12` returned a Ki of 0.0035 µM. Moreover, the inhibition at 5 µM is 98% in the experiment with MDA-MB-435 and 100% in the experiment on LNCaP. Half-maximal inhibition against Androgen receptor [3] (IC50) was put at 0.011 µM.
On to `CON1C[C@@]2(C)O[C@@](C)(C1)[C@@H]1C(=O)N(c3ccc(C#N)c(C(F)(F)F)c3)C(=O)[C@@H]12`, for which the inhibitory constant (Ki) on Androgen receptor [1] was determined as 0.0037 µM. The IC50 on Androgen receptor [2] worked out at 0.179 µM; against Androgen receptor [3] it was 0.024 µM. In addition, the inhibition at 5 µM in the experiment with MDA-MB-435 is 99%; in the experiment on LNCaP, 72%.
The like results for `C[C@]12CNC[C@](C)(O1)[C@@H]1C(=O)N(c3ccc(C#N)c(C(F)(F)F)c3)C(=O)[C@@H]12` were, in that order, 0.021 µM, above 5 µM, 0.128 µM, 98% and 20%.
Taken in the same sequence, the figures for `C[C@]12CN(S(=O)(=O)c3ccccc3)C[C@](C)(O1)[C@@H]1C(=O)N(c3ccc(C#N)c(C(F)(F)F)c3)C(=O)[C@@H]12` were 0.012 µM, 0.979 µM, 0.099 µM, 99% and 91%.
At Androgen receptor [1], `CC(C)OC(=O)N1C[C@@]2(C)O[C@@](C)(C1)[C@@H]1C(=O)N(c3ccc(C#N)c(C(F)(F)F)c3)C(=O)[C@@H]12` registered a Ki of 0.011 µM. Further, the values for the IC50 against Androgen receptor [2] and on Androgen receptor [3] were 0.069 µM and 0.012 µM, respectively. Also, the inhibition at 5 µM with MDA-MB-435 and in the experiment on LNCaP was 99% each time.
At Androgen receptor [1], `CN1C(=O)[C@]2(C)O[C@](C)(C1=O)[C@H]1C(=O)N(c3ccc(C#N)c(C(F)(F)F)c3)C(=O)[C@H]12` returned an inhibition constant (Ki) of 0.02 µM. Also, the IC50 was above 5 µM on Androgen receptor [2] and 2.14 µM at Androgen receptor [3].
In turn, `C[C@]12CN(S(=O)(=O)c3ccc(F)cc3)C[C@](C)(O1)[C@@H]1C(=O)N(c3ccc(C#N)c(C(F)(F)F)c3)C(=O)[C@@H]12` yielded a Ki on Androgen receptor [1] of 0.032 µM. For the same compound, the IC50 on Androgen receptor [2] stood at 0.685 µM; on Androgen receptor [3] it was 0.054 µM. Moreover, the inhibition at 5 µM with MDA-MB-435 was determined as 100%; in the experiment on LNCaP, 95%.
In the case of `C[C@]12O[C@](C)(C(=O)N(CC3CC3)C1=O)[C@H]1C(=O)N(c3ccc(C#N)c(C(F)(F)F)c3)C(=O)[C@H]12`, the Ki on Androgen receptor [1] stood at 0.05 µM. In addition, the IC50 against Androgen receptor [2] is 3.33 µM; against Androgen receptor [3] it was 0.873 µM.
Consider `C[C@]12CN(C(=O)c3ccccc3)C[C@](C)(O1)[C@@H]1C(=O)N(c3ccc(C#N)c(C(F)(F)F)c3)C(=O)[C@@H]12`, for which the Ki at Androgen receptor [1] is 0.023 µM. For the same compound, the 50% inhibitory concentration (IC50) against Androgen receptor [2] stood at 0.177 µM; against Androgen receptor [3], 0.054 µM. Besides, the inhibition at 5 µM in the experiment with MDA-MB-435 was found to be 99%; in the experiment on LNCaP it was 98%.
The like results for `C[C@]12CN(C(=O)Nc3ccccc3)C[C@](C)(O1)[C@@H]1C(=O)N(c3ccc(C#N)c(C(F)(F)F)c3)C(=O)[C@@H]12` were, in that order, 0.04 µM, 0.123 µM, 0.016 µM, 99% and 98%.
As to `CCNC(=O)N1C[C@@]2(C)O[C@@](C)(C1)[C@@H]1C(=O)N(c3ccc(C#N)c(C(F)(F)F)c3)C(=O)[C@@H]12`, the affinity on Androgen receptor [1], expressed as Ki, was 0.176 µM. For the same compound, the IC50 against Androgen receptor [2] worked out at 1.46 µM; on Androgen receptor [3] it was 0.313 µM. In addition, the inhibition at 5 µM stood at 97% with MDA-MB-435 and 76% in the experiment with LNCaP.
`CCCN1C[C@@]2(C)O[C@@](C)(C1)[C@@H]1C(=O)N(c3ccc(C#N)c(C(F)(F)F)c3)C(=O)[C@@H]12`: the Ki at Androgen receptor [1] was found to be 0.014 µM. The IC50 at Androgen receptor [2] turned out to be 0.025 µM; against Androgen receptor [3] it was 0.014 µM. The inhibition at 5 µM in the experiment on MDA-MB-435 was determined as 99%; in the experiment on LNCaP, 98%.
